Laboratory results published in patent US7449495B2, “Retinoid derivatives with antiangiogenic, antitumoral and proapoptotic activities” (Sigma-Tau Industrie Farmaceutiche Riunite S.p.A., priority 2001, dated 2008).

Columns and labels:
[1] = test system: no small cell lung carcinoma A431; test: Cytotoxicity test (sulphorodamine B), A431; type: cell-based; conditions: Homo sapiens, A-431, 24 h incubation, survival 48 h after removal
From the text: Different cell lines deriving from solid tumors were also used. • 1. Human prostate carcinoma PC3 and DU145. These cell lines were maintained in RPMI 1640 medium containing 10% FCS, 1% sodium pyruvate and 1% glutamine; • 2. Human colon adenocarcinoma LoVo. This cell line was maintained in HAM's F-12 medium, containing 10% FCS and 1% glutamine. • 3. Human ovarian carcinoma such as A2780 and A2780/Dx, sensitive and resistant to drugs, respectively (doxorubicin, taxol, etoposide, vincristine); IGROV-1 and IGROV-1/Pt, sensitive and resistant to platinum-based chemotherapy, respectively, were maintained in RPMI 1640 medium containing 10% FCS, 1% sodium pyruvate and 1% glutamine; • 4. Human melanoma MeWo and MeS 2.21, glioblastoma GBM, no small cell lung carcinomas A431, NCI—H460, osteosarcomas SAOS and U2OS were maintained in RPMI 1640 medium containing 10% FCS, 1% sodium pyruvate and 1% glutamine.
The cytotoxicity tests were carried out using NB4 or HL-60 cells in suspension (10000/well). The cells were seeded in a volume of 250 μl in 96 well plates and incubated for 24 hours at 37° C. […] The optical density was measured using a Multiskan spectrophotometer at 540 nm. […]
Cell survival was determined by incubation with ST1926 for 24 hours, 48 hours after the removal of the compound. […]

[2] = test system: multidrug-resistant human ovarian carcinoma A2780/Dx; test: Antitumoral activity in human ovarian carcinoma model A2780/Dx; type: in vivo, CD1 nu/nu mice; conditions: qdx5x3w
Procedure: The human ovarian carcinoma cells A2780, A2780/Dx and NCIH460 were maintained in RPMI-1640 containing 10% FCS, 2 mM glutamine, 50 μg/ml gentamicin, at 37° C. in a humidified atmosphere containing 5% CO2. The cells were trypsinised, collected in complete medium, centrifuged at approx. 1100 rpm for 10 minutes and the precipitate resuspended in Hank's 199 Medium; this operation was carried out twice. The cells were resuspended in Hank's 199 Medium at a density of 20×10^6/ml and 0.1 ml (equal to 2×10^6 cells/mouse) were injected s.c. into the right flank of CD1 nu/nu 6 week-old, female mice.
The ST1926 solution was prepared immediately before use and solubilised in cremophor:ethanol 1:1 and subsequently diluted 1:4 in buffered saline solution. The animal treatments were administered in a volume of 10 ml/kg. The treatment protocol for ST1926 at different doses was for 5 consecutive days (qd×5), beginning one day following tumor cell inoculation and repeated for 3 cycles. Measurements of tumor dimensions were performed using a digital calliper (Vernier Caliper) twice weekly, from the time in which the mass was measurable. The tumor mass was evaluated from the size of the two principal dimensions (length and breadth), expressed in mm, applying the formula (length×breadth^2)/2, that is, the tumor volume in mm3. For each experimental group, the percentage of tumor volume inhibition was calculated (TVI %), with respect to the control, namely (100−(T/C %). TVI was evaluated 2 days after the final administration of ST1926.
The mice were measured until the control group tumors had reached a weight of 2 g, then the mice were sacrificed by cervical dislocation.
A comparison between the TVI values obtained for each group was performed using the non parametric Mann Whitney test for non-paired data, using the Instat software from GraphPad inc.
The mice were weighed prior to each treatment, firstly, so as to be able to administer the correct quantity of substance based on the possible changes in weight observed throughout the course of administration of the drug, and also to record the maximum weight loss throughout the treatment (BWL % max).

SMILES: O=C(O)/C=C/c1ccc(-c2ccc(O)c(C34CC5CC(CC(C5)C3)C4)c2)cc1 [ST1926, E-4-(3-(1-adamantyl)-4-hydroxyphenyl)cinnamic acid]
- IC50 [1]: 250 nM
- BWL % Max ([2]; 10 mg/kg po): 0%
- Lethality ([2]; 10 mg/kg po): 0/8
- TVI % ± SE ([2]; 10 mg/kg po): *34 ± 3%
- BWL % Max ([2]; 15 mg/kg po): 6%
- Lethality ([2]; 15 mg/kg po): 0/8
- TVI % ± SE ([2]; 15 mg/kg po): *54 ± 9%
